{"source": "PubChem BioAssay (NCI)", "test_in_all_cases": "inhibition of tumour cell growth, NCI panel, 48 h", "key": {"[1]": {"system": "OVCAR-5 ovarian"}, "[2]": {"system": "MDA-MB-435"}, "[3]": {"system": "HCT-15 colon"}, "[4]": {"system": "MDA-MB-231 breast"}, "[5]": {"system": "OVCAR-8 ovarian"}, "[6]": {"system": "RXF 393 renal"}, "[7]": {"system": "U251 CNS"}, "[8]": {"system": "DU-145 prostate"}, "[9]": {"system": "A498 renal"}, "[10]": {"system": "MCF7 breast"}, "[11]": {"system": "SN12C renal"}, "[12]": {"system": "SK-MEL-28 melanoma"}, "[13]": {"system": "HCT-116 colon"}, "[14]": {"system": "NCI-H522 lung"}, "[15]": {"system": "SF-268 CNS"}, "[16]": {"system": "NCI/ADR-RES ovarian"}, "[17]": {"system": "HL-60(TB) leukemia"}, "[18]": {"system": "UACC-62 melanoma"}, "[19]": {"system": "A549 NSCLC"}, "[20]": {"system": "SNB-19 CNS"}, "[21]": {"system": "COLO 205 colon"}, "[22]": {"system": "UO-31 renal"}, "[23]": {"system": "ACHN renal"}, "[24]": {"system": "OVCAR-3 ovarian"}, "[25]": {"system": "RPMI-8226 leukemia"}, "[26]": {"system": "BT-549 breast"}}, "note": "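A five-concentration, 48-hour dose response in 96-well plates underlies each endpoint, interpolated linearly between surrounding concentrations. The concentration for 50% growth inhibition is given as GI50. TGI is the concentration that stops growth completely.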", "data": [{"smiles": "Cc1ncc(C(=O)Nc2ccc(CN3CCN(C)CC3)c(C(F)(F)F)c2)cc1C#Cc1cnc(N)c2ncccc12", "values": [{"measurement": "TGI", "setting": "[1]", "result": 2.81, "unit": "µM"}, {"measurement": "GI50", "setting": "[2]", "result": 0.0419, "unit": "µM"}, {"measurement": "TGI", "setting": "[2]", "result": 1.58, "unit": "µM"}, {"measurement": "GI50", "setting": "[3]", "result": 0.0752, "unit": "µM"}, {"measurement": "TGI", "setting": "[3]", "result": 1.79, "unit": "µM"}, {"measurement": "GI50", "setting": "[4]", "result": 0.0801, "unit": "µM"}, {"measurement": "TGI", "setting": "[4]", "result": 1.18, "unit": "µM"}, {"measurement": "GI50", "setting": "[5]", "result": 1.1, "unit": "µM"}, {"measurement": "TGI", "setting": "[5]", "result": 4.86, "unit": "µM"}, {"measurement": "GI50", "setting": "[6]", "result": 0.0984, "unit": "µM"}, {"measurement": "TGI", "setting": "[6]", "result": 1.49, "unit": "µM"}, {"measurement": "GI50", "setting": "[7]", "result": 1.07, "unit": "µM"}, {"measurement": "TGI", "setting": "[7]", "result": 2.65, "unit": "µM"}, {"measurement": "GI50", "setting": "[8]", "result": 0.18, "unit": "µM"}, {"measurement": "TGI", "setting": "[8]", "result": 2.08, "unit": "µM"}, {"measurement": "GI50", "setting": "[9]", "result": 0.228, "unit": "µM"}, {"measurement": "TGI", "setting": "[9]", "result": 2.38, "unit": "µM"}, {"measurement": "GI50", "setting": "[10]", "result": 1.61, "unit": "µM"}, {"measurement": "TGI", "setting": "[10]", "result": 4.36, "unit": "µM"}, {"measurement": "GI50", "setting": "[11]", "result": 0.221, "unit": "µM"}, {"measurement": "TGI", "setting": "[11]", "result": 1.91, "unit": "µM"}, {"measurement": "GI50", "setting": "[12]", "result": 0.056, "unit": "µM"}, {"measurement": "TGI", "setting": "[12]", "result": 1.49, "unit": "µM"}, {"measurement": "GI50", "setting": "[13]", "result": 0.218, "unit": "µM"}, {"measurement": "TGI", "setting": "[13]", "result": 2.4, "unit": "µM"}, {"measurement": "GI50", "setting": "[14]", "result": 1.05, "unit": "µM"}, {"measurement": "TGI", "setting": "[14]", "result": 3.96, "unit": "µM"}, {"measurement": "GI50", "setting": "[15]", "result": 0.417, "unit": "µM"}, {"measurement": "TGI", "setting": "[15]", "result": 3, "unit": "µM"}, {"measurement": "GI50", "setting": "[16]", "result": 1.34, "unit": "µM"}, {"measurement": "TGI", "setting": "[16]", "result": 3.76, "unit": "µM"}, {"measurement": "GI50", "setting": "[17]", "result": 0.164, "unit": "µM"}, {"measurement": "TGI", "setting": "[17]", "result": 7.67, "unit": "µM"}, {"measurement": "GI50", "setting": "[18]", "result": 0.0276, "unit": "µM"}, {"measurement": "TGI", "setting": "[18]", "result": 1.31, "unit": "µM"}, {"measurement": "GI50", "setting": "[19]", "result": 0.391, "unit": "µM"}, {"measurement": "TGI", "setting": "[19]", "result": 2.69, "unit": "µM"}, {"measurement": "GI50", "setting": "[20]", "result": 2.16, "unit": "µM"}, {"measurement": "TGI", "setting": "[20]", "result": 5.33, "unit": "µM"}, {"measurement": "GI50", "setting": "[21]", "result": 0.0424, "unit": "µM"}, {"measurement": "TGI", "setting": "[21]", "result": 1.61, "unit": "µM"}, {"measurement": "GI50", "setting": "[22]", "result": 0.0596, "unit": "µM"}, {"measurement": "TGI", "setting": "[22]", "result": 0.775, "unit": "µM"}, {"measurement": "GI50", "setting": "[23]", "result": 0.063, "unit": "µM"}, {"measurement": "TGI", "setting": "[23]", "result": 1.65, "unit": "µM"}, {"measurement": "GI50", "setting": "[24]", "result": 1.32, "unit": "µM"}, {"measurement": "TGI", "setting": "[24]", "result": 4.96, "unit": "µM"}, {"measurement": "GI50", "setting": "[25]", "result": 0.538, "unit": "µM"}, {"measurement": "TGI", "setting": "[25]", "result": 3.98, "unit": "µM"}, {"measurement": "GI50", "setting": "[26]", "result": 1.65, "unit": "µM"}, {"measurement": "TGI", "setting": "[26]", "result": 18.9, "unit": "µM"}]}]}
